biological target: farnesyl protein transferase (Homo sapiens, UniProt P49356); experiment: FPT IC50, inhibition of farnesyl protein transferase, in vitro enzyme assay; format: biochemical; settings: procedure of WO 95/10516
Protocol: FPT IC50 (inhibition of farnesyl protein transferase, in vitro enzyme assay) and COS Cell IC50 (Cell-Based Assay) were determined following the assay procedures described in WO 95/10516, published Apr. 20, 1995. GGPT IC50 (inhibition of geranylgeranyl protein transferase, in vitro enzyme assay), Cell Mat Assay, and anti-tumor activity (in vivo anti-tumor studies) could be determined by the assay procedures described in WO 95/10516. The disclosure of WO 95/10516 is incorporated herein by reference thereto.

| IC50 [nM] | SMILES |
| --- | --- |
| < 2 | O=C(Cc1cc[n+]([O-])cc1)N1CCC(C2(O)c3ncc(Br)cc3CCc3cc(Cl)cc(Br)c32)CC1 (centres unmarked) [Example #1 Step C, 4-(3,10-dibromo-8-chloro-6,11-dihydro-11-hydroxy-5H-benzo[5,6]cyclohepta[1,2-b]pyridin-11-yl)-1-(4-pyridinylacetyl)piperidine N1-oxide] |
| 12.5 | O=C(CC1CCNCC1)N1CCC(C2(O)c3ncc(Br)cc3CCc3cc(Cl)cc(Br)c32)CC1 (centres unmarked) [Example #2 Step B, 4-[2-[4-(3,10-dibromo-8-chloro-6,11-dihydro-11-hydroxy-5H-benzo[5,6]-cyclohepta[1,2-b]pyridin-11-yl)-1-piperdinyl]-2-oxoethyl]-1-piperidine] |
| 42 | CC(C)(C)OC(=O)N1CCC(CC(=O)N2CCC(C3(O)c4ncc(Br)cc4CCc4cc(Cl)cc(Br)c43)CC2)CC1 (centres unmarked) [Example #2 Step A, 4-(3,10-dibromo-8-chloro-6,11-dihydro-11-hydroxy-5H-benzo[5,6]cyclohepta[1,2-b]pyridin-11-yl)-1-(N-BOC-4-piperdinylacetyl)piperidine] |
| 8.7 | NC(=O)CN1CCC(CC(=O)N2CCC(C3(O)c4ncc(Br)cc4CCc4cc(Cl)cc(Br)c43)CC2)CC1 (centres unmarked) [compound 3, 4-[2-[4-(3,10-dibromo-8-chloro-6,11-dihydro-11-hydroxy-5H-benzo[5,6]cyclohepta-[1,2-B]pyridin-11-yl)-1-piperidinyl]-2-oxoethyl]-1-piperidineacetamide] |
| 10.8 | NC(=O)N1CCC(CC(=O)N2CCC(C3(O)c4ncc(Br)cc4CCc4cc(Cl)cc(Br)c43)CC2)CC1 (centres unmarked) [Example #2 Step C, 4-[2-[4-(3,10-dibromo-8-chloro-6,11-dihydro-11-hydroxy-5H-benzo[5,6]cyclohepta[1,2-b]pyridin-11-yl)-1-piperdinyl]-2-oxoethyl]-1-piperidinecarboxamide] |

Reference: US6689789B2, “Compounds useful for inhibition of farnesyl protein transferase” (Schering Corporation, priority 1997, dated 2004)
